The values that follow come from patent US8119624B2, “Fused phenyl amido heterocyclic compounds” (Pfizer Inc., priority 2006, dated 2012).

The assay has as its target T1, Full-length glucokinase (beta cell isoform) (Homo sapiens, UniProt P35557).
T1 construct: Full-length glucokinase (beta cell isoform) was His-tagged at N-terminus; His tag (N); made in house
T1 sequence (P35557 1-465): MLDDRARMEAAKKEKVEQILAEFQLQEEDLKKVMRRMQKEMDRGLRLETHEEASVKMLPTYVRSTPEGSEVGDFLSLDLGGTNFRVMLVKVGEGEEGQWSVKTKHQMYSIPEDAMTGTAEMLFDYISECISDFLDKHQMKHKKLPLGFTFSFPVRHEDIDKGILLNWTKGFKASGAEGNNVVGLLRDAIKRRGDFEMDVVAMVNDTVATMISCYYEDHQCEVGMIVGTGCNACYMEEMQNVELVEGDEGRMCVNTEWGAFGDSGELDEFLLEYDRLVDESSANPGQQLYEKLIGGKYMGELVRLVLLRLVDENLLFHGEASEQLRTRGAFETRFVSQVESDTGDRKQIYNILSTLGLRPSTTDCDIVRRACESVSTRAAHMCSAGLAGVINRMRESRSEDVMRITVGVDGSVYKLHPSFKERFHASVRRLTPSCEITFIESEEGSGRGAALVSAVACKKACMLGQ
Nature of the assay: Glucokinase biochemical assay (PK/LDH-coupled, NADH depletion at 340 nm): % activation, EC50, % max activation. The conditions noted are these: 5 mM glucose; for activation at 10 µM: 10 uM compound, % Activation=(Va/Vo−1)×100, read-out: % Activation at 10 uM; for EC50: GK activation, read-out: EC50; for Emax: fitted maximum activation, read-out: % Max Activation. The procedure: Full-length glucokinase (beta cell isoform) was His-tagged at N-terminus and purified by a Ni column followed by size exclusion chromatography. Glucose was obtained from Calbiochem, and other reagents were from Sigma.
All assays were performed in a Corning 96-well plate using Spectramax PLUS spectrophotometer (Molecular Devices) at room temperature. The final assay volume was 100 uL. The buffer conditions used in this assay were as follows: 50 mM HEPES, 5 mM glucose, 1 mM ATP, 2 mM MgCl2, 0.7mM NADH, 2 mM DTT, 1 Unit/mL PK/LDH, 0.2 mM phosphoenolpyruvate, 25 mM KCl. Tested compound in DMSO solution was added to the buffer and mixed well by a plate shaker for 1 minute. The final concentration of DMSO introduced into the assay was 1%.
Glucokinase was added to the buffer mixture to initiate the reaction in the presence and absence of compound. Reaction was monitored by absorbance at 340nm due to the depletion of NADH. The initial reaction velocity was measured by the slope of a linear time course of 200-900 sec.
The percentage of activation was calculated by the following equation: % Activation=(Va/Vo−1)×100;
wherein each of Va and Vo is defined as the initial reaction velocity in the presence and absence of the tested compound, respectively.
The GK activities were measured as a function of compound concentrations.

Regarding `CC1Cc2c(cc(Oc3ccc(S(C)(=O)=O)cc3)cc2C(=O)Nc2ccccn2)O1` (stereo not drawn) [Example 1, 6-(4-Methanesulfonyl-phenoxy)-2-methyl-2,3-dihydrobenzofuran-4-carboxylic acid pyridin-2-ylamide], the activation at 10 µM is 101%; the 50% effective concentration (EC50) (in general, the midpoint of the concentration-response curve) came to 8.7 µM; the Emax was determined as 144%.
The matching figures for `Cc1ccc(NC(=O)c2cc(Oc3ccc(S(C)(=O)=O)cc3)cc3c2CC(C)O3)nc1` (stereo not drawn) [Example 2, 6-(4-Methanesulfonyl-phenoxy)-2-methyl-2,3-dihydrobenzofuran-4-carboxylic acid(5-methyl-pyridin-2-yl)-amide]: 113%, 5.3 µM and 152%.
The matching figures for `Cc1ccc(NC(=O)c2cc(Oc3ccc(S(C)(=O)=O)cc3)c3c(c2)OC(C)(C)C3)nc1` [Example 3, 4-(4-Methanesulfonyl-phenoxy)-2,2-dimethyl-2,3-dihydrobenzofuran-6-carboxylic acid(5-methyl-pyridin-2-yl)-amide]: 145%, 0.348 µM and 140%.
For the compound `Cc1cc2cc(Oc3ccc(S(C)(=O)=O)cc3)cc(C(=O)Nc3ccn(C)n3)c2o1` [Example 4, 5-(4-Methanesulfonyl-phenoxy)-2-methyl-benzofuran-7-carboxylic acid(1-methyl-1H-pyrazol-3-yl)-amide], the activation at 10 µM was determined as 14.6%.
Still for that read-out and setting: for `Cc1cc2cc(Oc3ccc(S(C)(=O)=O)cc3)cc(C(=O)Nc3ccccn3)c2o1` [Example 5, 5-(4-Methanesulfonyl-phenoxy)-2-methyl-benzofuran-7-carboxylic acid pyridin-2-ylamide] the value was -6.3%.
On to `Cc1ccc(NC(=O)c2cc(Oc3ccc(S(C)(=O)=O)cc3)cc3c2CCO3)nc1` [Example 6, 6-(4-Methanesulfonyl-phenoxy)-2,3-dihydrobenzofuran-4-carboxylic acid(5-methyl-pyridin-2-yl)-amide], for which the activation at 10 µM turned out to be 87.6%, the 50% effective concentration (EC50) was 9.6 µM and the Emax amounted to 123%.
For `Cc1ccc(NC(=O)c2cc(Oc3ccc(S(C)(=O)=O)cc3)cc3occc23)nc1` [Example 7, 6-(4-Methanesulfonyl-phenoxy)-benzofuran-4-carboxylic acid(5-methyl-pyridin-2-yl)-amide], in that order: 99.7%, 3.7 µM and 129%.
The matching figures for `Cc1ccc(NC(=O)c2cc3c(c(Oc4ccc(S(C)(=O)=O)cc4)c2)CCO3)nc1` [Example 8, 4-(4-Methanesulfonyl-phenoxy)-2,3-dihydro-benzofuran-6-carboxylic acid(5-methyl-pyridin-2-yl)-amide]: 127%, 2.8 µM and 100%.
For the compound `Cc1ccc(NC(=O)c2cc(Oc3ccc(S(C)(=O)=O)cc3)c3ccoc3c2)nc1` [Example 9, 4-(4-Methanesulfonyl-phenoxy)-benzofuran-6-carboxylic acid(5-methyl-pyridin-2-yl)-amide], the activation at 10 µM was found to be 72.7%, the concentration for a half-maximal effect (EC50) is 3.08 µM and the Emax was 94.7%.
The matching figures for `Cc1ccc(NC(=O)c2cc(Oc3ccc(S(C)(=O)=O)cc3)c3c(c2)OC(C)C3)nc1` (stereo not drawn) [Example 10, 4-(4-Methanesulfonyl-phenoxy)-2-methyl-2,3-dihydro-benzofuran-6-carboxylic acid(5-methyl-pyridin-2-yl)-amide]: 98.7%, 1.1 µM and 122%.
The matching figures for `CC1Cc2c(Oc3ccc(S(C)(=O)=O)cc3)cc(C(=O)Nc3ccn(C)n3)cc2O1` (stereo not drawn) [Example 11, 4-(4-Methanesulfonyl-phenoxy)-2-methyl-2,3-dihydro-benzofuran-6-carboxylic acid(1-methyl-1H-pyrazol-3-yl)-amide]: 158%, 2 µM and 177%.
For the compound `CC(C)COc1cc(C(=O)Nc2ccc(C(=O)O)cn2)cc2c1CC(C)(C)O2` [Example 14, 6-[(4-Isobutoxy-2,2-dimethyl-2,3-dihydro-benzofuran-6-carbonyl)-amino]-nicotinic acid], the activation at 10 µM is 167%, the EC50 turned out to be 1.3 µM and the Emax was determined as 115%.
In the case of `CC1(C)Cc2c(Oc3ccc(S(C)(=O)=O)cc3)cc(C(=O)Nc3ccc(C(N)=O)cn3)cc2O1` [Example 15, 6-{[4-(4-Methanesulfonyl-phenoxy)-2,2-dimethyl-2,3-dihydro-benzofuran-6-carbonyl]-amino}-nicotinamide], the activation at 10 µM worked out at 4.3%.
`Cn1ccc(NC(=O)c2cc(Oc3ccc(S(C)(=O)=O)cc3)c3c(c2)OC(C)(C)C3)n1` [Example 16, 4-(4-Methanesulfonyl-phenoxy)-2,2-dimethyl-2,3-dihydro-benzofuran-6-carbo-xylic acid(1-methyl-1H-pyrazol-3-yl)-amide]: the activation at 10 µM was 213%, the concentration for a half-maximal effect (EC50) came out at 0.506 µM and the Emax came to 192%.
For `CC1(C)Cc2c(Oc3ccc(S(C)(=O)=O)cc3)cc(C(=O)Nc3cnccn3)cc2O1` [Example 17, 4-(4-Methanesulfonyl-phenoxy)-2,2-dimethyl-2,3-dihydrobenzofuran-6-carboxy-lic acid pyrazin-2-ylamide], in that order: 161%, 0.51 µM and 165%.
The matching figures for `COc1ccnc(NC(=O)c2cc(Oc3ccc(S(C)(=O)=O)cc3)c3c(c2)OC(C)(C)C3)c1` [Example 18, 4-(4-Methanesulfonyl-phenoxy)-2,2-dimethyl-2,3-dihydro-benzofuran-6-carbo-xylic acid(4-methoxy-pyridin-2-yl)-amide]: 105%, 0.95 µM and 114%.
For `CC1(C)Cc2c(Oc3ccc(S(C)(=O)=O)cc3)cc(C(=O)Nc3ccccn3)cc2O1` [Example 19, 4-(4-Methanesulfonyl-phenoxy)-2,2-dimethyl-2,3-dihydro-benzofuran-6-carbo-xylic acid pyridin-2-ylamide], in that order: 139%, 0.37 µM and 156%.
With `Cn1ncc(NC(=O)c2cc(Oc3ccc(S(C)(=O)=O)cc3)c3c(c2)OC(C)(C)C3)n1` [Example 20, 4-(4-Methanesulfonyl-phenoxy)-2,2-dimethyl-2,3-dihydro-benzofuran-6-carbo-xylic acid(2-methyl-2H-[1,2,3]triazol-4-yl)-amide], the activation at 10 µM turned out to be 230%, the EC50 stood at 0.314 µM and the Emax was 231%.
Consider `Cc1ccc(NC(=O)c2cc(Oc3ccc(S(C)(=O)=O)cc3)c3c(c2)OC(C)(C)C3)nn1` [Example 21, 4-(4-Methanesulfonyl-phenoxy)-2,2-dimethyl-2,3-dihydro-benzofuran-6-carboxylic acid (6-methyl-pyridazin-3-yl)-amide], for which the activation at 10 µM turned out to be 97.9%, the EC50 was determined as 3.9 µM and the Emax is 127%.
The matching figures for `CC1(C)Cc2c(Oc3ccc(S(C)(=O)=O)cc3)cc(C(=O)Nc3ccc(CO)cn3)cc2O1` [Example 22, 4-(4-Methanesulfonyl-phenoxy)-2,2-dimethyl-2,3-dihydro-benzofuran-6-carboxylic acid (5-hydroxymethyl-pyridin-2-yl)-amide]: 118%, 0.29 µM and 117%.
For `Cc1ccnc(NC(=O)c2cc(Oc3ccc(S(C)(=O)=O)cc3)c3c(c2)OC(C)(C)C3)c1` [Example 23, 4-(4-Methanesulfonyl-phenoxy)-2,2-dimethyl-2,3-dihydro-benzofuran-6-carboxylic acid(4-methyl-pyridin-2-yl)-amide], in that order: 46.1%, 1.4 µM and 70%.
For `Cc1nnc(NC(=O)c2cc(Oc3ccc(S(C)(=O)=O)cc3)c3c(c2)OC(C)(C)C3)s1` [Example 24, 4-(4-Methanesulfonyl-phenoxy)-2,2-dimethyl-2,3-dihydro-benzofuran-6-carboxylic acid(5-methyl-[1,3,4]thiadiazol-2-yl)-amide], in that order: 121%, 1.49 µM and 140%.
